Reference: patent US8048455B2, “Treatment of cancer and inflammatory disorder” (Academia Sinica, priority 2006, dated 2011)

Legend:
[1] = tested on: COX-2 protein; assay: COX-2 protein expression (immunoblotting) in LPS-stimulated macrophages; type: cell-based, murine; conditions: LPS 18 h
Protocol: Total cellular proteins and the specific cytosolic and nuclear proteins were prepared using methods described in Chiang et al. Protein content was measured by the Bradford method (Bio-Rad). Protein was resolved by 5-20% gradient SDS-PAGE and subjected to immunoblotting using enhanced chemiluminescence reagents (ECL, Amersham). Monoclonal antibodies against PARP (Transduction Laboratories, Lexington, Ky.), GA3PDH (Biogenesis, Poole, UK), α-tubulin (Oncogene Science, Cambridge, UK), COX-2 (Cayman Chemical), phospho-(Ser32)-IκBα, phospho-IKKα(Ser180)/IKKβ(Ser181) (New England Biolabs, Beverly, Mass.), iNOS, IκBα, IKKα/β or NF-κB p65 (RelA) (Santa Cruz Biotechnology, Santa Cruz, Calif.) were used.
(§1) It was further examined whether dLGG affects COX-2 mRNA and protein expression using RT-PCR and immunoblotting. Cells were treated with dLGG for 1 hour, then LPS (1 μg/mL) was added for 18 hours. Total cellular protein (20 μg) was subjected to immunoblotting. Quantification of COX-2 mRNA and protein expression involved normalization to GA3PDH by densitometry.

[2] = tested on: iNOS mRNA; assay: iNOS mRNA expression (RT-PCR) in LPS-stimulated RAW264.7 cells; type: cell-based, murine; conditions: LPS 1 μg/mL 6 h
Protocol: (§2) For each RT-PCR analysis, 2 μg of total RNA isolated with TRIZOL® Reagent was used to synthesize 1st-strand cDNA using […]™ II Reverse Transcriptase (Invitrogen). The iNOS and COX-2 genes were amplified and analyzed using specific oligonucleotide primers and PCR reactions by method described in Chiang et al. Br J Pharmacol 2005; 146:352-63).
RAW264.7 cells were treated with various concentrations of dLGG for 1 hour, then incubated with LPS (1 μg/mL) for 6 hours. Total cellular RNA was subjected to RT-PCR, and final PCR product resolved by 1% agarose gel electrophoresis.

[3] = tested on: B16 melanoma; assay: In vivo inhibition of B16 melanoma growth in C57BL/6J mice; conditions: mouse, in vivo, ip
Protocol: The chemopreventive effect of the CREa8 subfraction was evaluated on tumor growth using the B16 melanoma C57BL/6J mouse system. Six-week-old animals (4 groups of mice, 5 in each group) were used in this experiment. Group 1 mice (Sham control) were intraperitoneally (i.p.) injected with 20 μL of DMSO every 2 days throughout the experimental period, except 100 μL PBS was injected on day 0. Group 4 mice (Tumor control) were pre-treated with DMSO every 2 days, starting from day—14, for 2 weeks, inoculated with B16 tumor cells (1×10^6 cells/100 μL PBS) subcutaneously (s.c.) on the abdominal area on day 0, and then injected with DMSO every 2 days until day 21. Group 2 mice were i.p. pre-treated with CREa8 (10 mg/kg body weight per dose) every 2 days, starting from day—14, for 2 weeks, s.c. inoculated with B16 tumor cells on day 0, and then continuously treated with CREa8 (i.p.) every 2 days until day 21. Group 3 mice were similarly pre-treated with DMSO every 2 days for 2 weeks, inoculated with B16 tumor cells on day 0, and then treated with cisplatin (i.p.) every 2 days until day 21. The test mice were monitored daily, and body weights and tumor size (average of 2 dimensions) recorded every 2 days. At the end of the experiment (day 21), tumors were excised and weighed.
The cancer prevention efficacy of the dLGG-rich fraction (CREa8) was examined in vivo in 4 groups of mice according to the method described above. Cisplatin, a cancer chemotherapeutic, was used as a reference control.

[4] = tested on: COX-2 and nitrotyrosine-containing proteins; assay: Immunohistochemical study of COX-2 and nitrotyrosine protein expression in mouse skin; type: in vivo, Female ICR mice
Protocol: Female ICR mice were topically treated on their shaven backs with vehicle (acetone), TPA, or SNP for 4 hours, or were treated with compound (dLGG, celecoxib, or PTIO) topically for 30 minutes before treating with TPA or SNP for 4 hours and finally killed by cervical dislocation. The formalin-fixed, paraffin-embedded skin tissues were stained according to Chiang et al. Br J Pharmacol 2005; 146:352-63.
Immunohistochemical study was carried out to examine the ability of dLGG to inhibit TPA induction of COX-2 and nitration of proteins in vivo using immunohistochemical analysis in a mouse skin system. Dorsal skin of female ICR mice was treated topically with acetone (vehicle control) or TPA (10 nmol) for 4 hours or with various concentrations of dLGG or celecoxib for 30 minutes before TPA treatment for 4 hours. Immunohistograms were taken with an Olympus DP-70 camera on a Nikon ECLIPSE E800 microscope.

[5] = tested on: human COX-2 promoter; assay: COX-2 promoter-driven luciferase reporter assay in TPA-treated B16 melanoma cells; type: cell-based, murine; conditions: for Suppression of full-length COX-2 promoter activity vs TPA only: TPA 50 ng/mL 6 h
Source text: A double-mutated COX-2 promoter containing mutations on both NF-κB sites was also constructed (FIG. 2). PPGL-3-Basic vector was used as a negative control in luciferase assays. COX-2 reporter activity in arbitrary units (AU) was normalized to that for the Renilla luciferase reporter.
Murine melanoma B-16 cells co-transfected with the full-length pCOX-2-Luc and internal control plasmid pRL-TK-Luc plasmid constructs were stimulated without (control) or with TPA, in the absence or presence of the indicated concentrations of CREa8. An amount of 10 μg of total protein lysate was subjected to dual luciferase reporter assay. The induction fold of COX promoter activity by TPA treatment only is presented as 100%. The statistical analyses between […] and CREa8, aspirin, or indomethacin (Indo.) treatment were performed using Student's t-test.
B-16 cells were co-transfected with the full-length pCOX-2-Luc and internal control Renilla pRL-TK-Luc plasmid constructs with the LIPOFECTAMINE reagent (Invitrogen). The cells were then stimulated with vehicle (0.001% DMSO) or with 50 ng/mL TPA, in the absence or presence of dLGG for 6 hours. Ten μg of total protein lysate prepared with Passive Lysis Buffer (Promega) was subjected to dual luciferase reporter assay. The induction fold of COX-2 promoter activity by TPA treatment only is presented as 100%.
The contribution of specific cis-acting element binding sites on the transcription of COX-2 was examined. Data were obtained from 2 to 3 experiments with 3 to 6 replicates and expressed as mean±SD. Two-way ANOVA was used to analyze significance of differences.

[6] = tested on: COX-2 mRNA; assay: COX-2 mRNA expression (RT-PCR) in LPS-stimulated macrophages; type: cell-based, murine; conditions: 75 μg/mL
Protocol: as §2, §1

CC/C=C\C/C=C\C/C=C\CCCCCCCC(=O)OC[C@H](CO[C@@H]1O[C@H](CO)[C@H](O)[C@H](O)[C@H]1O)OC(=O)CCCCCCC/C=C\C/C=C\C/C=C\CC [dLGG, 1,2-di-O-α-linolenoyl-3-O-β-galactopyranosyl-sn-glycerol]
Suppression of LPS-induced COX-2 protein synthesis ([1]; 50 μg/mL): approximately 60%
COX-2 protein level ([1]; 75 μg/mL): barely detectable
Reduction of iNOS mRNA expression [2]: approximately 56%
Mortality or body weight loss on i.p. administration [3]: without mortality or body weight loss
Inhibitory effect on COX-2 protein expression and nitrotyrosine-containing proteins versus celecoxib 10 mg in 200 μL/site ([4]; 1 mg in 200 μL/site (6.46 mM)): comparable to that of celecoxib
TPA-induced increases of COX-2 and nitrotyrosine-containing proteins in epidermis ([4]; topical 30 min before TPA 10 nmol 4 h): significantly attenuated
Topical SNP-induced nitroprotein formation in mouse skin ([4]; topical, SNP-treated): suppressed
Suppression of full-length COX-2 promoter activity vs TPA only ([5]; 50 μg/mL, B16 cells): 20%
TPA-induced luciferase activity of −1334/−1 and −646/−1 promoter constructs (smaller) ([5]; 100 μg/mL, B16 cells): 65-68%
Suppression of full-length COX-2 promoter activity vs TPA only ([5]; 100 μg/mL, B16 cells): 33%
TPA-activated increases in luciferase activity, truncated promoter constructs ([5]; 100 μg/mL, all transfected cells): able to fully inhibit
TPA-induced COX-2 promoter activity in mutant promoter constructs (CRE, NF-IL6, NF-κB) ([5]; B16 cells): able to suppress
Inhibition of COX-2 mRNA expression [6]: ~29%
